Laboratory results taken from ChEMBL document CHEMBL6083201, “Identification of triazolyl KAT6 inhibitors via a templated fragment approach” (Bioorg Med Chem Lett, 2024).

Biological target: Histone acetyltransferase KAT6A (Homo sapiens, UniProt Q92794)
Assay: Inhibition of KAT6A (unknown origin)

Chain of Histone acetyltransferase KAT6A (Q92794 whole entry): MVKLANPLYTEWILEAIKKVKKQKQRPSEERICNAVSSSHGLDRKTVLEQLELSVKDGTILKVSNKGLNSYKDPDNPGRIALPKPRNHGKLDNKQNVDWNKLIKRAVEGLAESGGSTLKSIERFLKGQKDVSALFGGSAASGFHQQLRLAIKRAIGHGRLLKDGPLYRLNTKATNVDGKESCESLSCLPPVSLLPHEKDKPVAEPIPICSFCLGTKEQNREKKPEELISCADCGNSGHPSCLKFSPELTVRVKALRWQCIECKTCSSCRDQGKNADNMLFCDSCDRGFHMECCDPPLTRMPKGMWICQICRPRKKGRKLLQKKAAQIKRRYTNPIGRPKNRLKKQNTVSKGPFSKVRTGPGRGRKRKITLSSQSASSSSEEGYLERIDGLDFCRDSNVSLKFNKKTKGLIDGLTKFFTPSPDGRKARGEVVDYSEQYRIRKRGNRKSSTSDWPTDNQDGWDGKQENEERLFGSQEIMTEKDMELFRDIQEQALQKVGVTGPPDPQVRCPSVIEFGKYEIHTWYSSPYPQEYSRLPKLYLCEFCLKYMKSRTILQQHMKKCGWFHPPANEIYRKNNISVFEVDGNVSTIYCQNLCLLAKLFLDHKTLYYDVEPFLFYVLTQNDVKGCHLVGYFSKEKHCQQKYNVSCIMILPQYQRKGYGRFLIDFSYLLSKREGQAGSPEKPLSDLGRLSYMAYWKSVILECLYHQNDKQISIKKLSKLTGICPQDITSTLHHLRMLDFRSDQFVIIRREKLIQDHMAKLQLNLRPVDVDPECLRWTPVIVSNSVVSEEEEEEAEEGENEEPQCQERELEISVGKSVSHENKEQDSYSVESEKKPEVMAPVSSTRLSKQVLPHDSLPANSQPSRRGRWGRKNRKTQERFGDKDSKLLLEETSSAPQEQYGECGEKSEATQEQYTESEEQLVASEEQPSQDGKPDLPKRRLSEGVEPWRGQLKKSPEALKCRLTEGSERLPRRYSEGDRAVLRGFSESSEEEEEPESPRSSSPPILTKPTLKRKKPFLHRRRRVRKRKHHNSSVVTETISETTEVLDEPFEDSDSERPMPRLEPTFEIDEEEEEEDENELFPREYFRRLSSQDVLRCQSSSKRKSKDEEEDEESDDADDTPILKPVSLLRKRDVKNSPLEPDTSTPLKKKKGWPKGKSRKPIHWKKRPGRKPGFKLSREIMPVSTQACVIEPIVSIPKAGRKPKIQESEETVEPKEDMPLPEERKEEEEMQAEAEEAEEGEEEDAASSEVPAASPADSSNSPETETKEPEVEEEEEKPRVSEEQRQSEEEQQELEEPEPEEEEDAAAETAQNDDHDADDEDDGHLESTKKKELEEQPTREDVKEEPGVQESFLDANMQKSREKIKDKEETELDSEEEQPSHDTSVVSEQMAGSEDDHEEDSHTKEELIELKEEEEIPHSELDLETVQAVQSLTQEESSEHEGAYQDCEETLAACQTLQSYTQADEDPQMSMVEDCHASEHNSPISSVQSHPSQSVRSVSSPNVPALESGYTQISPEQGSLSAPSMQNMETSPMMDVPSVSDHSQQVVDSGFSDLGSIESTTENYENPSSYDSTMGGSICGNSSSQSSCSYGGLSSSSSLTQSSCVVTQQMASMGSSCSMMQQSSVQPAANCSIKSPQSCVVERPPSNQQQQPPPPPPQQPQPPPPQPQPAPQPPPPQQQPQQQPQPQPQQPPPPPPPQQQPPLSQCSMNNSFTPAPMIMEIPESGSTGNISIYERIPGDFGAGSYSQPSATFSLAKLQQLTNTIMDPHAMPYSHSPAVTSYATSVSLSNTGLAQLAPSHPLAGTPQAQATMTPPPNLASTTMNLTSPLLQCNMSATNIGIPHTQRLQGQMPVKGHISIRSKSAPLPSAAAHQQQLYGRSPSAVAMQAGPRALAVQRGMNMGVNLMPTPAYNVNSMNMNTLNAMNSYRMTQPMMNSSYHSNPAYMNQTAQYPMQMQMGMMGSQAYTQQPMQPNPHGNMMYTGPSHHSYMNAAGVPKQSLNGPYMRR

Question: Which IC50 does the source give for `COc1ccc(C2=CCN(C)CC2)cc1-n1cc(NS(=O)(=O)c2ccccc2)nn1` here?
Answer: > 100 µM
